A word on the pIC50: it is the IC50 on a negative log10 scale, so that one unit is a factor of ten.

These results are taken from patent US20080234262A1 (Wyeth, priority 2007, published 2008).

The target of one assay is PI3K (Homo sapiens, UniProt P42336). Put plainly: Fluorescence polarization assay for PI3K.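 Also: PI3K kinase reaction on PIP2 with ATP, 30-60 min, product sensed by GST-GRP with red probe in fluorescence polarization (mP), controls without enzyme and at zero time.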 Type of assay: biochemical. The note with it: PI3Kα; read-out: PI3Kα IC50.
Chain of PI3K (P42336 whole entry): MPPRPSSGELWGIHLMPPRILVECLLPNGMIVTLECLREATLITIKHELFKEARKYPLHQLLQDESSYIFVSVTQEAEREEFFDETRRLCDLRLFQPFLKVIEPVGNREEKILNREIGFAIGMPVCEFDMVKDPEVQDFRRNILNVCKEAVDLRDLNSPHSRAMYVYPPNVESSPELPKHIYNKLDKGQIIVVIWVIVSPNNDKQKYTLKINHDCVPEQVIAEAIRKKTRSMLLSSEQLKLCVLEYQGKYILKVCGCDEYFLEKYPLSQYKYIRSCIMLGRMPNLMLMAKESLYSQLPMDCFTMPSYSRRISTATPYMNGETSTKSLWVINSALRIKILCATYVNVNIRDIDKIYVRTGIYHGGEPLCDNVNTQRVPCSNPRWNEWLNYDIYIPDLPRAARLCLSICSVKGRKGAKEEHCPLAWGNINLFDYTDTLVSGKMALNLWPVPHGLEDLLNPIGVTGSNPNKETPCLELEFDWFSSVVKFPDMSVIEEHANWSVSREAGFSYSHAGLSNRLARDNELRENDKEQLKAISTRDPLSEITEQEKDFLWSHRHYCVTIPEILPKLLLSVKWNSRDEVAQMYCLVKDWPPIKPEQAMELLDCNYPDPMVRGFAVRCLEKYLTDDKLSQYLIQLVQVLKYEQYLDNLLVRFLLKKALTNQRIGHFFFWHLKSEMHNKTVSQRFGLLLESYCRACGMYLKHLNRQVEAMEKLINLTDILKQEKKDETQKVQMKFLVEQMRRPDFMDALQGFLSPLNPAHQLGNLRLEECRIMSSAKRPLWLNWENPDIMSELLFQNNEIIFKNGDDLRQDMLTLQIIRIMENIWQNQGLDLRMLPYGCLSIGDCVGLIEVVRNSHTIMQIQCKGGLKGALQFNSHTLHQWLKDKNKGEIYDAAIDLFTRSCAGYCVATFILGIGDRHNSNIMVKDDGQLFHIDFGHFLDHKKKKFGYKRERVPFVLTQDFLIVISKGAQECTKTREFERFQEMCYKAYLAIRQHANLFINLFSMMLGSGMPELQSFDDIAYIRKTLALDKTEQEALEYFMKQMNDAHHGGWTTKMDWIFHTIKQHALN
Chain of PI3K (P27986 whole entry partner): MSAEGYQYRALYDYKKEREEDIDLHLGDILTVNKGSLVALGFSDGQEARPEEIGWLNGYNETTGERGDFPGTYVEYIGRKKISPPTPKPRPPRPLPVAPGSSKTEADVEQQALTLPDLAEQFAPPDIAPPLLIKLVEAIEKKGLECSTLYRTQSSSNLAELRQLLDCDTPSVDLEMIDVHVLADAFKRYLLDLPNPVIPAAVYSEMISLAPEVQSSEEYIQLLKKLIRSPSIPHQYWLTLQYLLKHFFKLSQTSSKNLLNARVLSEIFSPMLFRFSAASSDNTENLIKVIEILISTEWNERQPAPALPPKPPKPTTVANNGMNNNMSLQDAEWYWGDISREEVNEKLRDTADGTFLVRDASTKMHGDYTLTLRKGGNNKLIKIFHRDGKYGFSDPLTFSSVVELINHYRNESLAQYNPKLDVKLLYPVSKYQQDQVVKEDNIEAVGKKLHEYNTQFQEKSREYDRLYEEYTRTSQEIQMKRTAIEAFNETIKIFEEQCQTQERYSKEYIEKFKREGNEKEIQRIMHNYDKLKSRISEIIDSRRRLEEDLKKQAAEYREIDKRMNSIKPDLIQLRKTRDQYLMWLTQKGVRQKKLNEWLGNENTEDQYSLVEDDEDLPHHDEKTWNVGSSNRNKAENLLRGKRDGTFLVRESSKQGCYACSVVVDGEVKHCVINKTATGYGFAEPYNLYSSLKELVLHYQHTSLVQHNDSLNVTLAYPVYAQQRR
The subject of the next assay is prostate line LNCap. Put plainly: In vitro cell culture growth assay (MTS), LNCap.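 Also: viable cell density read by absorbance at 490 nm, growth expressed as percent of vehicle-treated cells on the same plate.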 Type of assay: cell-based, human. The following applies: LNCap cells, three days after drug treatment.
The next assay relates to breast line MDA468. As to the kind of experiment: In vitro cell culture growth assay (MTS), MDA468. The note with it: MDA468 cells, three days after drug treatment. Type of assay: cell-based, human. A digest of the protocol:
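Steps: plate cells; add inhibitors the next day; incubate 3 days; add MTS dye, which viable cells convert metabolically; measure absorbance at 490 nm; calculate percent of control growth relative to vehicle-treated cells in the same plate.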

pIC50: −log10 of the molar value. A value given as a limit tells only on which side of the number the result lay.

Take `O=C(NCC(F)(F)F)Nc1ccc(-c2nc(N3CCOCC3)c3cnn(C4CCN(Cc5ccccc5)CC4)c3n2)cc1` [Example 289, 1-{4-[1-(1-benzylpiperidin-4-yl)-4-morpholin-4-yl-1H-pyrazolo[3,4-d]pyrimidin-6-yl]phenyl}-3-(2,2,2-trifluoroethyl)urea]: the pIC50 was 6.23 on PI3K; 6.49 in the assay with prostate line LNCap (Homo sapiens, LNCaP, 72 h); 5.89 in the assay with breast line MDA468 (Homo sapiens, 72 h).

As for `CNC(=O)Nc1ccc(-c2nc(N3CCOCC3)c3cnn(C4CCN(C(=O)c5ccc(C#N)cc5)CC4)c3n2)cc1` [Example 368, 1-(4-{1-[1-(4-cyanobenzoyl)piperidin-4-yl]-4-morpholin-4-yl-1H-pyrazolo[3,4-d]pyrimidin-6-yl}phenyl)-3-methylurea], the pIC50 on PI3K was 7.05; in the assay with prostate line LNCap (Homo sapiens, LNCaP, 72 h) it was 6.82; in the assay with breast line MDA468 (Homo sapiens, 72 h), 6.70.

Consider `NCC(=O)Nc1ccc(-c2nc(N3CCOCC3)c3cn[nH]c3n2)cc1` [Compound 528, N-[4-(4-morpholin-4-yl-1H-pyrazolo[3,4-d]pyrimidin-6-yl)phenyl]glycinamide], for which the pIC50 at PI3K was 6.89; with prostate line LNCap (Homo sapiens, LNCaP, 72 h) it was 5.05; in the assay on breast line MDA468 (Homo sapiens, 72 h), 4.96.

Regarding `Fc1ccc(CN2CCC(n3ncc4c(N5CCOCC5)nc(-c5ccc6[nH]ccc6c5)nc43)CC2)cn1` [Example 172, 1-{1-[(6-fluoropyridin-3-yl)methyl]piperidin-4-yl}-6-(1H-indol-5-yl)-4-morpholin-4-yl-1H-pyrazolo[3,4-d]pyrimidine], the pIC50 at PI3K is 6.44; with prostate line LNCap (Homo sapiens, LNCaP, 72 h) it was 6.00; in the assay on breast line MDA468 (Homo sapiens, 72 h), 5.77.

With `CNC(=O)Nc1ccc(-c2nc(N3CCOCC3)c3cnn(C4CCOCC4)c3n2)cc1` [Compound 939, 1-methyl-3-{4-[4-morpholin-4-yl-1-(tetrahydro-2H-pyran-4-yl)-1H-pyrazolo[3,4-d]pyrimidin-6-yl]phenyl}urea], the pIC50 at PI3K was 7.36; in the assay on prostate line LNCap (Homo sapiens, LNCaP, 72 h) it was 6.85; with breast line MDA468 (Homo sapiens, 72 h), 6.30.

As to `CCCNC(=O)Nc1ccc(-c2nc(N3CCOCC3)c3cnn(C4CCN(Cc5ccccc5)CC4)c3n2)cc1` [Compound 500, 1-{4-[1-(1-benzylpiperidin-4-yl)-4-morpholin-4-yl-1H-pyrazolo[3,4-d]pyrimidin-6-yl]phenyl}-3-propylurea], the pIC50 at PI3K is 6.47; in the assay with prostate line LNCap (Homo sapiens, LNCaP, 72 h), 6.66; in the assay with breast line MDA468 (Homo sapiens, 72 h), 5.82.

Turning to `NCc1cccc(-c2nc(N3CCOCC3)c3cnn(-c4ccccc4)c3n2)c1` [Compound 144], the pIC50 was 6.20 at PI3K; 5.62 in the assay on prostate line LNCap (Homo sapiens, LNCaP, 72 h); 5.42 in the assay with breast line MDA468 (Homo sapiens, 72 h).

Regarding `CCCCNC(=O)Nc1ccc(-c2nc(N3CCOCC3)c3cnn(C4CCN(Cc5cccnc5)CC4)c3n2)cc1` [Example 212, 1-Butyl-3-(4-{4-morpholin-4-yl-1-[1-(pyridin-3-ylmethyl)piperidin-4-yl]-1H-pyrazolo[3,4-d]pyrimidin-6-yl}phenyl)urea], the pIC50 was 6.97 on PI3K; 6.43 in the assay with prostate line LNCap (Homo sapiens, LNCaP, 72 h); 5.85 in the assay on breast line MDA468 (Homo sapiens, 72 h).

`c1ccc(CCN2CCC(n3ncc4c(N5CCOCC5)nc(-c5ccc6[nH]ccc6c5)nc43)CC2)cc1` [Compound 489, 6-(1H-indol-5-yl)-4-morpholin-4-yl-1-[1-(2-phenylethyl)piperidin-4-yl]-1H-pyrazolo[3,4-d]pyrimidine]: the pIC50 at PI3K is 5.51; with prostate line LNCap (Homo sapiens, LNCaP, 72 h), 6.11; with breast line MDA468 (Homo sapiens, 72 h), 5.51.

As to `CC(=O)Nc1ccc(-c2nc(N3CCOCC3)c3cnn(CCN4CCCCC4)c3n2)cc1` [Compound 127], the pIC50 at PI3K was 5.19; in the assay on prostate line LNCap (Homo sapiens, LNCaP, 72 h) it was 5.30; in the assay with breast line MDA468 (Homo sapiens, 72 h), 4.74.

As to `C=CC(=O)N1CCC(n2ncc3c(N4CCOCC4)nc(-c4ccc5[nH]ccc5c4)nc32)CC1` [Compound 194], the pIC50 at PI3K was 5.97; in the assay on prostate line LNCap (Homo sapiens, LNCaP, 72 h), 6.02; in the assay on breast line MDA468 (Homo sapiens, 72 h), 5.52.

For the compound `Nc1ccc(-c2nc(N3CCOCC3)c3cnn(C4CCC5(CC4)OCCO5)c3n2)cc1` [Compound 565, 4-[1-(1,4-dioxaspiro[4.5]dec-8-yl)-4-morpholin-4-yl-1H-pyrazolo[3,4-d]pyrimidin-6-yl]aniline], the pIC50 is 5.69 on PI3K; 5.96 in the assay with prostate line LNCap (Homo sapiens, LNCaP, 72 h); 5.14 in the assay on breast line MDA468 (Homo sapiens, 72 h).

With `CC(C)N1CCC(n2ncc3c(N4CCOCC4)nc(-c4ccc5[nH]ccc5c4)nc32)CC1` [Compound 488, 6-(1H-indol-5-yl)-1-(1-isopropylpiperidin-4-yl)-4-morpholin-4-yl-1H-pyrazolo[3,4-d]pyrimidine], the pIC50 on PI3K was 5.43; with prostate line LNCap (Homo sapiens, LNCaP, 72 h), 5.60; in the assay with breast line MDA468 (Homo sapiens, 72 h), 5.54.

With `COC(=O)Nc1ccc(-c2nc(N3CCOCC3)c3cnn(C4CCN(C(=O)N(C)C)CC4)c3n2)cc1` [Compound 808, methyl (4-{1-[1-(dimethylcarbamoyl)piperidin-4-yl]-4-morpholin-4-yl-1H-pyrazolo[3,4-d]pyrimidin-6-yl}phenyl)carbamate], the pIC50 was 5.58 on PI3K; 6.37 in the assay with prostate line LNCap (Homo sapiens, LNCaP, 72 h); 6.16 with breast line MDA468 (Homo sapiens, 72 h).

With `O=C(c1ccc(Br)nc1)N1CCC(n2ncc3c(N4CCOCC4)nc(-c4ccc5[nH]ccc5c4)nc32)CC1` [Compound 203], the pIC50 at PI3K is 5.94; with prostate line LNCap (Homo sapiens, LNCaP, 72 h), 5.98; in the assay on breast line MDA468 (Homo sapiens, 72 h) it was 5.52.

`c1cc2cc(-c3nc(N4CCOCC4)c4cnn(C5CCCCC5)c4n3)ccc2[nH]1` [Example 90, 1-cyclohexyl-6-(1H-indol-5-yl)-4-morpholin-4-yl-1H-pyrazolo[3,4-d]pyrimidine]: the pIC50 at PI3K was 6.04; in the assay with prostate line LNCap (Homo sapiens, LNCaP, 72 h), 5.92; in the assay on breast line MDA468 (Homo sapiens, 72 h), 5.49.

As to `Oc1cccc(-c2nc(N3CCOCC3)c3cnn(C4CCCCC4)c3n2)c1` [Example 91, 3-(1-cyclohexyl-4-morpholin-4-yl-1H-pyrazolo[3,4-d]pyrimidin-6-yl)phenol], the pIC50 at PI3K was 7.46; with prostate line LNCap (Homo sapiens, LNCaP, 72 h), 6.39; with breast line MDA468 (Homo sapiens, 72 h), 5.60.

On to `CN1CCC(C(=O)Nc2ccc(-c3nc(N4CCOCC4)c4cn[nH]c4n3)cc2)CC1` [Compound 284, 1-methyl-N-[4-(4-morpholin-4-yl-1H-pyrazolo[3,4-d]pyrimidin-6-yl)phenyl]piperidine-4-carboxamide], for which the pIC50 on PI3K was 6.05; with prostate line LNCap (Homo sapiens, LNCaP, 72 h) it was 5.28; in the assay with breast line MDA468 (Homo sapiens, 72 h), 4.66.

On to `CNC(=O)Nc1ccc(-c2nc(N3CCOCC3)c3cnn(C4CCN(C(=O)N5CCN(C)CC5)CC4)c3n2)cc1` [Compound 578, 1-methyl-3-[4-(1-{1-[(4-methylpiperazin-1-yl)carbonyl]piperidin-4-yl}-4-morpholin-4-yl-1H-pyrazolo[3,4-d]pyrimidin-6-yl)phenyl]urea], for which the pIC50 was 7.15 at PI3K; 6.40 in the assay on prostate line LNCap (Homo sapiens, LNCaP, 72 h); 6.15 with breast line MDA468 (Homo sapiens, 72 h).

For `COC(=O)Nc1ccc(-c2nc(N3CCOCC3)c3cnn(C4CCN(Cc5ccc(F)cc5)CC4)c3n2)cc1` [Compound 694, methyl (4-{1-[1-(4-fluorobenzyl)piperidin-4-yl]-4-morpholin-4-yl-1H-pyrazolo[3,4-d]pyrimidin-6-yl}phenyl)carbamate], the pIC50 on PI3K is 6.12; in the assay on prostate line LNCap, 5.92; in the assay with breast line MDA468, 5.59.

Turning to `O=C(Nc1ccc(-c2nc(N3CCOCC3)c3cnn(C4CCNCC4)c3n2)cc1)NC1CC1` [Compound 776, 1-cyclopropyl-3-[4-(4-morpholin-4-yl-1-piperidin-4-yl-1H-pyrazolo[3,4-d]pyrimidin-6-yl)phenyl]urea], the pIC50 is 6.35 at PI3K; 5.96 in the assay with prostate line LNCap (Homo sapiens, LNCaP, 72 h); 5.96 in the assay with breast line MDA468 (Homo sapiens, 72 h).

As to `Nc1ccc(-c2nc(N3CCOCC3)c3cnn(C4CCN(C(=O)c5cccnc5)CC4)c3n2)nc1` [Compound 679, 6-{4-morpholin-4-yl-1-[1-(pyridin-3-ylcarbonyl)piperidin-4-yl]-1H-pyrazolo[3,4-d]pyrimidin-6-yl}pyridin-3-amine], the results for the pIC50 at PI3K, in the assay on prostate line LNCap and with breast line MDA468 were 5.39, 4.35 and < 4.22, respectively.

`CNC(=O)Nc1ccc(-c2nc(N3CCOCC3)c3cnn(C4CCN(Cc5ccccc5C)CC4)c3n2)cc1` [Example 429, 1-methyl-3-(4-{1-[1-(2-methylbenzyl)piperidin-4-yl]-4-morpholin-4-yl-1H-pyrazolo[3,4-d]pyrimidin-6-yl}phenyl)urea]: the pIC50 on PI3K is 7.29; in the assay with prostate line LNCap (Homo sapiens, LNCaP, 72 h), 7.40; in the assay with breast line MDA468 (Homo sapiens, 72 h) it was 6.70.

`CNC(=O)Nc1ccc(-c2nc(N3CCOCC3)c3cnn([C@H]4CCCN(C(=O)OC(C)(C)C)C4)c3n2)cc1` [Compound 872, tert-butyl (3S)-3-(6-{4-[(methylcarbamoyl)amino]phenyl}-4-morpholin-4-yl-1H-pyrazolo[3,4-d]pyrimidin-1-yl)piperidine-1-carboxylate]: the pIC50 was 6.77 at PI3K; 6.57 in the assay on prostate line LNCap (Homo sapiens, LNCaP, 72 h); 6.00 in the assay on breast line MDA468 (Homo sapiens, 72 h).

As to `COC(=O)Nc1ccc(-c2nc(N3CCOCC3)c3cnn(C4CCN(C(C)=O)CC4)c3n2)cc1` [Compound 809, methyl {4-[1-(1-acetylpiperidin-4-yl)-4-morpholin-4-yl-1H-pyrazolo[3,4-d]pyrimidin-6-yl]phenyl}carbamate], the pIC50 on PI3K was 5.68; in the assay on prostate line LNCap (Homo sapiens, LNCaP, 72 h), 5.64; with breast line MDA468 (Homo sapiens, 72 h), 5.35.

As for `O=C(Nc1ccc(-c2nc(N3CCOCC3)c3cnn(C4CCN(C(=O)c5cccnc5)CC4)c3n2)cc1)Nc1ccccn1` [Compound 592, 1-(4-{4-morpholin-4-yl-1-[1-(pyridin-3-ylcarbonyl)piperidin-4-yl]-1H-pyrazolo[3,4-d]pyrimidin-6-yl}phenyl)-3-pyridin-2-ylurea], the pIC50 was 6.59 at PI3K; 7.02 in the assay with prostate line LNCap (Homo sapiens, LNCaP, 72 h); 6.15 in the assay with breast line MDA468 (Homo sapiens, 72 h).

In the case of `COC(=O)N1CCC(n2ncc3c(N4CCOCC4)nc(-c4ccc5[nH]ccc5c4)nc32)CC1` [Example 244, methyl 4-[6-(1H-indol-5-yl)-4-morpholin-4-yl-1H-pyrazolo[3,4-d]pyrimidin-1-yl]piperidine-1-carboxylate], the pIC50 was 5.48 at PI3K; 6.12 in the assay on prostate line LNCap (Homo sapiens, LNCaP, 72 h); 5.68 with breast line MDA468 (Homo sapiens, 72 h).
